Patent publication US20080234266A1, “Squaric Acid Derivatives II” (priority 2005, published 2008)

The compounds below were run against T1, CHK1 kinase (Homo sapiens, UniProt O14757) (assay: Flashplate method (CHK1), measurement of the CHK1 kinase activity). Settings: class symbols; 'Affinity to receptors'.
T1 construct: glutathione S-transferase (GST); made in house; host or cells: Sf21 insect cells (S. frugiperda), baculovirus
T1 sequence (O14757 1-476): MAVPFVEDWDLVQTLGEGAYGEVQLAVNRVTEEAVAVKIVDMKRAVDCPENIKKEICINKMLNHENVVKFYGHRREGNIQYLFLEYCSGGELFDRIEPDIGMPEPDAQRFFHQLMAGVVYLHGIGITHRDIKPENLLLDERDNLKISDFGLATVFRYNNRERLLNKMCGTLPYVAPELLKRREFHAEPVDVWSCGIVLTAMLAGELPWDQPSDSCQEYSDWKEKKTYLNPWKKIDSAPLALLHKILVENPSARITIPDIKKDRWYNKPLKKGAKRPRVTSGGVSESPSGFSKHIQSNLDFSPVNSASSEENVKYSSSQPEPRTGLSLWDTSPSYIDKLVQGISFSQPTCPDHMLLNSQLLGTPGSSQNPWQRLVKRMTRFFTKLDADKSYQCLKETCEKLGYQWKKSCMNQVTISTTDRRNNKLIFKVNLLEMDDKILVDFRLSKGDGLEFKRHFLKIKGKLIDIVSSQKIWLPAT
Type: biochemical
Protocol: CHK1 kinase is expressed for the purposes of protein production in insect cells (Sf21; S. frugiperda) and subsequent purification by affinity chromatography as fusion protein with glutathione S-transferase in a baculovirus expression vector. The cultivation, infection and digestion of the cells as well as the purification of the fusion protein by column chromatography are carried out in accordance with manufacturer-oriented generic working instructions.
The kinase activity is measured using various available measurement systems. In the scintillation proximity method (Sorg et al., J. of. Biomolecular Screening, 2002, 7, 11-19), the flashplate method or the filter binding test, the radioactive phosphorylation of a protein or peptide as substrate is measured using radioactively labelled ATP (γ^32P-ATP, (γ^33P-ATP). In the case of the presence of an inhibitory compound, a reduced radioactive signal, or none at all, can be detected. Furthermore, homogeneous time-resolved fluorescence resonance energy transfer (HTR-FRET) and fluorescence polarisation (FP) technologies are useful as assay methods (Sills et al., J. of Biomolecular Screening, 2002, 191-214).
The test plates used are 384-well streptavidin-coated Flashplates Plus® from Perkin Elmer (Cat.No. SMP410A001PK). The assay plate is equilibrated with 75 μl of assay buffer per well 30 min before commencement of the experiment. The buffer is sucked out before commencement of the experiment, and the components of the kinase reaction described below are pipetted onto the plate.
CHK1 kinase, a biotinylated substrate peptide (for example CHKtide: […]), is incubated with radioactively labelled ATP in the presence and absence of test substances at 30° Celsius and a total volume of 50 μl. The reaction is terminated using 25 μl of a 0.2 M EDTA solution. After incubation for 30 min at room temperature, the supernatants are filtered off with suction, and the wells are washed three times with 100 μl of 0.9% NaCl solution each time. The measurement of the bound radioactivity is carried out by means of a scintillation measuring instrument (Topcount NXT, Perkin-Elmer).
The full value used is the inhibitor-free kinase reaction. This should be approximately in the range 3000-4000 cpm. The pharmacological zero value used is staurosporin in a final concentration of 0.1 μM. The inhibitory values (IC50) are determined using the program RS1_MTS ( ).
Kinase reaction conditions per well:
0.15 μg of CHKtide ([…])
50 μl total volume (1-fold assay buffer reaction conditions)
Solutions used: • assay buffer:
0.1 mM Titriplex VI (EGTA
10 mM magnesium acetate 0.1% mercaptoethanol
pH=7.5 (to be set using hydrochloric acid) Bovine serum albumin (final concentration 0.1%) is not added until just before use. • stop solution:
0.2 M TitriplexIII (EDTA)
• γ^33P-ATP (Perkin-Elmer) • CHK1 kinase preparations: specific activity>50 U/mg • CHKtide solution: biotinylated peptide substrate (Biotrend) stored as stock solution (concentration 0.15 mg/ml).

Q: With `O=c1c(NCc2ccc(F)c(F)c2)c(Nc2ccc3[nH]cnc3c2)c1=O` [Compound A43, 3-(1H-benzimidazol-5-ylamino)-4-(3,4-di-fluorobenzylamino)cyclobut-3-ene-1,2-dione] as the compound, how does the IC50 read?
A: Its IC50 is over 1 µM.

Q: `CNS(=O)(=O)c1cccc(CNc2c(Nc3ccc4[nH]cnc4c3)c(=O)c2=O)c1` [Compound A44, 3-(1H-benzimidazol-5-ylamino)-4-[3-(methyl-aminosulfonyl)benzylamino]cyclobut-3-ene-1,2-dione] was tested. Which IC50 did it give?
A: Its IC50 is over 1 µM.

Q: With `CC(=O)Nc1cccc(CNc2c(Nc3ccc4[nH]cnc4c3)c(=O)c2=O)c1` [Compound A45, 3-(1H-benzimidazol-5-ylamino)-4-(3-acetamidobenzylamino)cyclobut-3-ene-1,2-dione] as the compound, how does the IC50 read?
A: Its IC50 is over 1 µM.

Q: How did the IC50 turn out when `CCn1c2ccccc2c2cc(Nc3c(NCc4cccc(O)c4)c(=O)c3=O)ccc21` [Compound A47, 3-(9-ethyl-9H-carbazol-3-ylamino)-4-(3-hydroxybenzylamino)cyclobut-3-ene-1,2-dione] was run?
A: Its IC50 is over 1 µM.

Q: `O=c1c(NCc2cccc(O)c2)c(Nc2ccc3nccn3c2)c1=O` [Compound A49, 3-(imidazo[1,2-a]pyridin-6-ylamino)-4-(3-hydroxybenzylamino)cyclobut-3-ene-1,2-dione] was tested. Which IC50 did it give?
A: The IC50 was under 1 µM.

Q: `Cn1cnc2cc(Nc3c(NCc4cccc(O)c4)c(=O)c3=O)ccc21` [Compound A50, 3-(1-methyl-1H-benzimidazol-5-ylamino)-4-(3-hydroxybenzylamino)cyclobut-3-ene-1,2-dione] was tested. Which IC50 did it give?
A: The IC50 was over 1 µM.

Q: Which IC50 does the source give for `COc1cccc([C@H](C)Nc2c(Nc3ccc4c(c3)ncn4C)c(=O)c2=O)c1` [Compound A51, 3-[(S)-1-(3-methoxyphenyl)ethylamino]-4-(1-methyl-1H-benzimidazol-5-ylamino)cyclobut-3-ene-1,2-dione] here?
A: Its IC50 is over 1 µM.

Q: With `Cn1cnc2ccc(Nc3c(NCc4cccc(O)c4)c(=O)c3=O)cc21` [Compound A52, 3-(3-hydroxybenzylamino)-4-(3-methyl-3H-benzimidazol-5-ylamino)cyclobut-3-ene-1,2-dione] as the compound, how does the IC50 read?
A: The IC50 was under 1 µM.

Q: How did the IC50 turn out when `COc1cccc([C@@H](C)Nc2c(Nc3ccc4ncn(C)c4c3)c(=O)c2=O)c1` [Compound A53, 3-[(R)-1-(3-methoxyphenyl)ethylamino]-4-(3-methyl-3H-benzimidazol-5-ylamino)cyclobut-3-ene-1,2-dione] was run?
A: The IC50 was under 1 µM.

Q: For `Cc1cc2nccn2cc1Nc1c(NCc2cccc(O)c2)c(=O)c1=O` [Compound A54, 3-(3-hydroxybenzylamino)-4-(7-methyl-imidazo[1,2-a]pyridin-6-ylamino)cyclobut-3-ene-1,2-dione], which IC50 is on record?
A: The IC50 was over 1 µM.

Q: Which IC50 does the source give for `Cc1cc(Nc2c(NCc3cccc(O)c3)c(=O)c2=O)cn2ccnc12` [Compound A55, 3-(3-hydroxybenzylamino)-4-(8-methyl-imidazo[1,2-a]pyridin-6-ylamino)cyclobut-3-ene-1,2-dione] here?
A: The IC50 was over 1 µM.

Q: For `CCN(CC)CCn1cnc2ccc(Nc3c(N[C@H](C)c4cccc(OC)c4)c(=O)c3=O)cc21` [Compound A65, 3-[3-(2-diethylaminoethyl)-3H-benzimidazol-5-ylamino]-4-[(R)-1-(3-methoxyphenyl)ethyl-amino]cyclobut-3-ene-1,2-dione], which IC50 is on record?
A: The IC50 was over 1 µM.

Q: With `CCN(CC)CCn1cnc2ccc(Nc3c(N[C@H](C)c4cccc(O)c4)c(=O)c3=O)cc21` [Compound A66, 3-[3-(2-diethylaminoethyl)-3H-benzimidazol-5-ylamino]-4-[(R)-1-(3-hydroxyphenyl)ethyl-amino]cyclobut-3-ene-1,2-dione] as the compound, how does the IC50 read?
A: The IC50 was over 1 µM.

Q: Which IC50 does the source give for `COCCn1cnc2ccc(Nc3c(N[C@H](C)c4cccc(O)c4)c(=O)c3=O)cc21` [Compound A68, 3-[3-(2-methoxyethyl)-3H-benzimidazol-5-ylamino]-4-[(R)-1-(3-hydroxyphenyl)ethyl-amino]cyclobut-3-ene-1,2-dione] here?
A: Its IC50 is under 1 µM.

Q: How did the IC50 turn out when `COCCn1cnc2ccc(Nc3c(NCc4cccc(-c5nnn[nH]5)c4)c(=O)c3=O)cc21` [Compound A69, 3-[3-(2-methoxyethyl)-3H-benzimidazol-5-ylamino]-4-[3-(1H-tetrazol-5-yl)benzylamino]-cyclobut-3-ene-1,2-dione] was run?
A: Its IC50 is over 1 µM.
